ChEMBL document CHEMBL3885861, “Open TG-GATES”

Organism: Rattus norvegicus
Assay: Open TG-GATES - Regimen: Single
Type: toxicity, organism-based, Sprague-Dawley
Parameters: regimen Single, gender Male, age 6 weeks
Details: in vivo, po, route gavage; for APTT / Bas / Eos / Fbg / Hb / Lym / MCH / MCHC / MCV / Mono / RBC / Ret / WBC: tissue Blood; for KIDNEY_L / KIDNEY_R / KIDNEY_TOTAL: tissue Kidney; for LIVER: tissue Liver; for ALP / ALT / AST / CRE / Ca / Cl / DBIL / GLC / IP / K / LDH / Na / PL / RALB / TBIL / TC / TG / TP / gamma-GTP: tissue Plasma
[1] = 0 mg/kg, 3 h, dose level Control
[2] = 0 mg/kg, 6 h, dose level Control
[3] = 0 mg/kg, 9 h, dose level Control
[4] = 0 mg/kg, 24 h, dose level Control

O=C1CN(/N=C/c2ccc(-c3ccc([N+](=O)[O-])cc3)o2)C(O)=N1 [DANTROLENE]
TERMINAL_BW [1]: 200.3 g | APTT [1]: 16.2 s | Bas [1]: 0% | Eos [1]: 1% | Fbg [1]: 209.6 mg/dL | Hb [1]: 13.4 g/dL | Lym [1]: 82.4% | MCH [1]: 22.9 pg | MCHC [1]: 34.6% | MCV [1]: 66.2 fL | Mono [1]: 5.6% | RBC [1]: 586.4 x10_4/ul | Ret [1]: 10.7% | WBC [1]: 134.1 x10_2/uL | KIDNEY_L [1]: 1 g | KIDNEY_R [1]: 1 g | KIDNEY_TOTAL [1]: 1.9 g | LIVER [1]: 9.3 g | ALP [1]: 876.8 IU/L | ALT [1]: 36.2 IU/L | AST [1]: 69.2 IU/L | CRE [1]: 0.5 mg/dL | Ca [1]: 10.6 mg/dL | Cl [1]: 103.8 meq/L | DBIL [1]: 0.058 mg/dL | GLC [1]: 194.2 mg/dL | IP [1]: 8.7 mg/dL | K [1]: 4.7 meq/L | LDH [1]: 92.8 IU/L | Na [1]: 139.6 meq/L | PL [1]: 134.8 mg/dL | RALB [1]: 3.6 g/dL | TBIL [1]: 0.3 mg/dL | TC [1]: 75 mg/dL | TG [1]: 47 mg/dL | TP [1]: 5.3 g/dL | gamma-GTP [1]: 2.2 IU/L | TERMINAL_BW [2]: 201.9 g | APTT [2]: 16.6 s | Bas [2]: 0% | Eos [2]: 1% | Fbg [2]: 205 mg/dL | Hb [2]: 13.3 g/dL | Lym [2]: 77.4% | MCH [2]: 22.6 pg | MCHC [2]: 34.6% | MCV [2]: 65.4 fL | Mono [2]: 9.2% | RBC [2]: 588 x10_4/ul | Ret [2]: 13.2% | WBC [2]: 107.2 x10_2/uL | KIDNEY_L [2]: 1 g | KIDNEY_R [2]: 0.9 g | KIDNEY_TOTAL [2]: 1.9 g | LIVER [2]: 9.3 g | ALP [2]: 689.6 IU/L | ALT [2]: 32.6 IU/L | AST [2]: 59.6 IU/L | CRE [2]: 0.5 mg/dL | Ca [2]: 10.5 mg/dL | Cl [2]: 104.4 meq/L | DBIL [2]: 0.064 mg/dL | GLC [2]: 196.4 mg/dL | IP [2]: 9.5 mg/dL | K [2]: 4.7 meq/L | LDH [2]: 82.2 IU/L | Na [2]: 140 meq/L | PL [2]: 135.2 mg/dL | RALB [2]: 3.5 g/dL | TBIL [2]: 0.3 mg/dL | TC [2]: 79.8 mg/dL | TG [2]: 58.2 mg/dL | TP [2]: 5.3 g/dL | gamma-GTP [2]: 1.2 IU/L | TERMINAL_BW [3]: 195.9 g | APTT [3]: 17.1 s | Bas [3]: 0% | Eos [3]: 1% | Fbg [3]: 200.6 mg/dL | Hb [3]: 13 g/dL | Lym [3]: 76.4% | MCH [3]: 21.5 pg | MCHC [3]: 33.1% | MCV [3]: 64.9 fL | Mono [3]: 9.8% | RBC [3]: 605.8 x10_4/ul | Ret [3]: 10.2% | WBC [3]: 98.6 x10_2/uL | KIDNEY_L [3]: 0.9 g | KIDNEY_R [3]: 0.9 g | KIDNEY_TOTAL [3]: 1.8 g | LIVER [3]: 8 g | ALP [3]: 881.6 IU/L | ALT [3]: 33.4 IU/L | AST [3]: 73.2 IU/L | CRE [3]: 0.5 mg/dL | Ca [3]: 10.1 mg/dL | Cl [3]: 107.6 meq/L | DBIL [3]: 0.084 mg/dL | GLC [3]: 200.2 mg/dL | IP [3]: 10.4 mg/dL | K [3]: 4.9 meq/L | LDH [3]: 80.2 IU/L | Na [3]: 140 meq/L | PL [3]: 127.2 mg/dL | RALB [3]: 3.6 g/dL | TBIL [3]: 0.4 mg/dL | TC [3]: 73.2 mg/dL | TG [3]: 21.2 mg/dL | TP [3]: 5.1 g/dL | gamma-GTP [3]: 1.6 IU/L | TERMINAL_BW [4]: 212.6 g | APTT [4]: 17.5 s | Bas [4]: 0% | Eos [4]: 1.2% | Fbg [4]: 207.4 mg/dL | Hb [4]: 13.2 g/dL | Lym [4]: 76.6% | MCH [4]: 21.9 pg | MCHC [4]: 33.7% | MCV [4]: 64.9 fL | Mono [4]: 9.4% | RBC [4]: 602.2 x10_4/ul | Ret [4]: 12.5% | WBC [4]: 91.9 x10_2/uL | KIDNEY_L [4]: 1 g | KIDNEY_R [4]: 1 g | KIDNEY_TOTAL [4]: 2 g | LIVER [4]: 10.2 g | ALP [4]: 993.6 IU/L | ALT [4]: 33.8 IU/L | AST [4]: 63.8 IU/L | CRE [4]: 0.5 mg/dL | Ca [4]: 10.9 mg/dL | Cl [4]: 105.6 meq/L | DBIL [4]: 0.012 mg/dL | GLC [4]: 198.4 mg/dL | IP [4]: 8 mg/dL | K [4]: 4.7 meq/L | LDH [4]: 80.6 IU/L | Na [4]: 141.6 meq/L | PL [4]: 144.2 mg/dL | RALB [4]: 3.7 g/dL | TBIL [4]: 0.4 mg/dL | TC [4]: 73.8 mg/dL | TG [4]: 91.6 mg/dL | TP [4]: 5.5 g/dL | gamma-GTP [4]: 1.8 IU/L | TERMINAL_BW (25 mg/kg, 3 h, dose level Low): 196.9 g | APTT (25 mg/kg, 3 h, dose level Low): 16.9 s
